Consider two compounds from patent US20230270711A1, “Improved Anti-Hangover Composition, Its Preparation and Uses” (Zobrius Pharma AS, priority 2019, published 2023).

The target of one assay is LADH. The settings on record: read-out: Ki, inhibition of LADH; cited from earlier work.
The subject of the next assay is alcohol metabolism. Description: Clinical Study Protocol: alcohol metabolism from BAC (CA 2000 Digital Alcohol Detector), Examples 1 and 2. Type of assay: in vivo, human. The following applies: in the 500 ml Composition A (90 g fructose). The procedure: Clinical Study Protocol—The studies presented in Examples 1 and 2 were carried out with 10 individuals (6 males and 4 females, aged 24-57 years).
In the control study (using water alone as the after-alcohol drink), the test persons were given 8 oz. (ca.2.4 dl) of vodka mixed with 6 dl Sprite® (The Coca Cola Company). The alcohol was consumed within one hour. At a given time, 30-60 minutes after alcohol consumption, each person drank a given volume of water (control composition). The alcohol level was then measured as described below.
One week later, a second study was carried out, wherein the same test persons were given the same amounts of vodka and Sprite®, respectively. At the given time after alcohol consumption, each test person drank the given volume of a test composition. The alcohol level was then measured as described just below.
Blood alcohol concentration (BAC) was measured, using a CA 2000 Digital Alcohol Detector, once every 30 minutes in each experiment. Each value is an average of four parallel measurements. Evaluation of effect against hangover was graded on a scale from 1-10 (where 10 represents the greatest effect).
The study protocol was carried out as described above, wherein the test composition comprised Comparative Composition A (defined below); the given time was 45 minutes; and the given volume was 500 ml. […]

One may read the Ki as a measure of affinity in units of concentration, obtained from inhibition or displacement.

SMILES strings stand for the structures.

As to `NC(=O)C1=CN([C@@H]2O[C@H](COP(=O)(O)OP(=O)(O)OC[C@H]3O[C@@H](n4cnc5c(N)ncnc54)[C@H](O)[C@@H]3O)[C@@H](O)[C@H]2O)C=CC1` [NADH], the Ki on LADH was 56 µM. For the compound `O=C(CO)[C@@H](O)[C@H](O)[C@H](O)CO` [fructose], the “Contribution of fructose to the acceleration of alcohol degradation” value with alcohol metabolism is on record as 20-25%.
